These are literature values, as cited in patent US8168440B2, “Polymeric sulfated surfactants for capillary electrophoresis (CE) and CE-mass spectrometry (CE-MS)” (Georgia State University, priority 2006, dated 2012).

For orientation: pKa means the negative logarithm of the acid dissociation constant.

The conditions of data set [1]: in vivo.

Regarding `CN[C@@H](C)[C@@H](O)c1ccccc1` (racemic) [(±)-pseudoephedrine, pseudoephedrine], in data set [1], the “Part of the dosage taken excreted in the urine” value is listed as “about one-half” and the Serum half-life was 5 to 8 h.
Take `CC(Oc1ccccc1Cl)C(=O)O` (racemic) [(±)-2-PPA, 2-(2-chlorophenoxy)propionic acid]: the pKa is given as 3.11±0.1.
